From ChEMBL document CHEMBL1201862, “PubChem BioAssay data set” (2004)
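Cells were grown in 96-well plates and exposed to each compound for 48 hours at five concentrations; endpoints were interpolated linearly between bracketing concentrations, or set to the highest concentration if not reached. The concentration for 50% growth inhibition is given as GI50.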 Activity calls are given as the source filed them. No stated cut-off is given here; in the data, active = GI50 up to about 1.1 µM and inactive = higher.

Assays:
Assay in all cases: DTP human tumour cell line panel, 48 h
[1] = system: K562
[2] = system: HOP-62
[3] = system: Malme-3M
[4] = system: HL-60
[5] = system: OVCAR-8
[6] = system: SR
[7] = system: HOP-92
[8] = system: A549
[9] = system: SK-MEL-28
[10] = system: SK-OV-3
[11] = system: UO-31
[12] = system: CCRF-CEM
[13] = system: RPMI-8226
[14] = system: SF-268
[15] = system: OVCAR-5
[16] = system: COLO 205
[17] = system: SF-295
[18] = system: HCT-15
[19] = system: CAKI-1
[20] = system: U-251

With `C/C(=N/NC(=O)C[n+]1ccccc1)C(CN(CC(C)C)CC(C)C)C(=O)Nc1ccc(C)cc1C` (configuration not stated) the GI50 [1] was > 100 µM (inactive), the GI50 [2] was 90.8 µM (inactive) and the GI50 [3] was > 100 µM (inactive). The GI50 [4] was 59.6 µM (inactive), the GI50 [5] was > 100 µM (inactive) and the GI50 [6] was > 100 µM (inactive). The GI50 [7] was 43.3 µM (inactive), the GI50 [8] was > 100 µM (inactive) and the GI50 [9] was > 100 µM (inactive). The GI50 [10] was > 100 µM (inactive), the GI50 [11] was 15.1 µM (inactive) and the GI50 [12] was > 100 µM (inactive). For the same compound, the GI50 [13] was 68.1 µM (inactive), the GI50 [14] was > 100 µM (inactive) and the GI50 [15] was 65.5 µM (inactive). For the same compound, the GI50 [16] was > 100 µM (inactive).

`c1ccc(C(CCN2CCCC2)c2ccccn2)cc1` (configuration not stated) was tested, and the GI50 [17] was > 100 µM (inactive), the GI50 [1] was > 100 µM (inactive) and the GI50 [2] was > 100 µM (inactive). The GI50 [18] was > 100 µM, the GI50 [3] was > 100 µM (inactive) and the GI50 [5] was > 100 µM (inactive). The GI50 [6] was < 0.01 µM (active), the GI50 [7] was > 100 µM (inactive) and the GI50 [19] was > 100 µM (inactive). The GI50 [8] was > 100 µM (inactive), the GI50 [9] was > 100 µM (inactive) and the GI50 [10] was > 100 µM (inactive). For the same compound, the GI50 [11] was > 100 µM (inactive), the GI50 [20] was > 100 µM (inactive) and the GI50 [13] was > 100 µM (inactive). The GI50 [14] was > 100 µM (inactive), the GI50 [15] was > 100 µM (inactive) and the GI50 [16] was > 100 µM (inactive).

With `CCOc1ccc(NC(=O)CC2C(=O)Nc3ccccc3S2(=O)=O)cc1` (configuration not stated) the GI50 [17] was 49.4 µM (inactive), the GI50 [1] was > 100 µM (inactive) and the GI50 [2] was 41.1 µM (inactive). For the same compound, the GI50 [18] was > 100 µM, the GI50 [3] was > 100 µM (inactive) and the GI50 [4] was > 100 µM (inactive). The GI50 [5] was 39.4 µM (inactive), the GI50 [6] was > 100 µM (inactive) and the GI50 [7] was 13.3 µM (inactive). The GI50 [8] was > 100 µM (inactive), the GI50 [9] was > 100 µM (inactive) and the GI50 [11] was > 100 µM (inactive). For the same compound, the GI50 [20] was 33.2 µM (inactive), the GI50 [13] was > 100 µM (inactive) and the GI50 [14] was 42.7 µM (inactive). For the same compound, the GI50 [15] was > 100 µM (inactive) and the GI50 [16] was > 100 µM (inactive).

`Cc1n(Cc2ccccc2)c2c([n+]1C)C(=O)c1ccccc1C2=O` was tested, and the GI50 [17] was 0.199 µM (active), the GI50 [1] was 0.0366 µM (active) and the GI50 [2] was 0.0407 µM (active). For the same compound, the GI50 [18] was 2.56 µM, the GI50 [3] was 0.0171 µM (active) and the GI50 [4] was 0.0318 µM (active). For the same compound, the GI50 [5] was 0.0431 µM (active), the GI50 [7] was 0.369 µM (active) and the GI50 [19] was 3.15 µM (inactive). For the same compound, the GI50 [8] was 0.0478 µM (active), the GI50 [9] was 0.0948 µM (active) and the GI50 [10] was 0.389 µM (active). For the same compound, the GI50 [11] was 4.57 µM (inactive), the GI50 [12] was 0.456 µM (active) and the GI50 [20] was 0.0324 µM (active). For the same compound, the GI50 [13] was 0.0296 µM (active), the GI50 [14] was 0.0274 µM (active) and the GI50 [15] was 0.167 µM (active). For the same compound, the GI50 [16] was < 0.01 µM (active).

`COCCOc1cc(C)cc(/C=C(C)/C=C/C2=C(C)CCCC2(C)C)n1` was tested, and the GI50 [17] was > 100 µM (inactive), the GI50 [2] was > 100 µM (inactive) and the GI50 [3] was 38.3 µM (inactive). The GI50 [5] was 60.7 µM (inactive), the GI50 [6] was 16.5 µM (inactive) and the GI50 [7] was 38.6 µM (inactive). The GI50 [19] was > 100 µM (inactive), the GI50 [8] was 51.9 µM (inactive) and the GI50 [9] was > 100 µM (inactive). For the same compound, the GI50 [10] was > 100 µM (inactive), the GI50 [11] was > 100 µM (inactive) and the GI50 [20] was 62.4 µM (inactive). The GI50 [13] was 14.8 µM (inactive), the GI50 [14] was > 100 µM (inactive) and the GI50 [15] was > 100 µM (inactive). The GI50 [16] was 54 µM (inactive).

`COc1ccc(C)cc1-c1ccc(-c2cc(C)ccc2OC)o1` was tested, and the GI50 [17] was > 100 µM (inactive), the GI50 [1] was > 100 µM (inactive) and the GI50 [2] was > 100 µM (inactive). For the same compound, the GI50 [18] was > 100 µM, the GI50 [3] was 66.4 µM (inactive) and the GI50 [4] was 86.5 µM (inactive). The GI50 [5] was > 100 µM (inactive), the GI50 [7] was 54.6 µM (inactive) and the GI50 [19] was > 100 µM (inactive). For the same compound, the GI50 [8] was > 100 µM (inactive), the GI50 [9] was > 100 µM (inactive) and the GI50 [10] was > 100 µM (inactive). The GI50 [11] was > 100 µM (inactive), the GI50 [12] was 68.4 µM (inactive) and the GI50 [20] was > 100 µM (inactive). For the same compound, the GI50 [13] was > 100 µM (inactive), the GI50 [14] was > 100 µM (inactive) and the GI50 [15] was 87.1 µM (inactive). For the same compound, the GI50 [16] was > 100 µM (inactive).

For `COc1ccc2oc(=O)c(CC=C(C)C)c(O)c2c1C`, the GI50 [17] was > 100 µM (inactive), the GI50 [1] was > 100 µM (inactive) and the GI50 [2] was > 100 µM (inactive). For the same compound, the GI50 [18] was > 100 µM, the GI50 [3] was > 100 µM (inactive) and the GI50 [4] was > 100 µM (inactive). For the same compound, the GI50 [5] was > 100 µM (inactive), the GI50 [6] was > 100 µM (inactive) and the GI50 [19] was > 100 µM (inactive). The GI50 [8] was > 100 µM (inactive), the GI50 [9] was > 100 µM (inactive) and the GI50 [10] was > 100 µM (inactive). For the same compound, the GI50 [11] was > 100 µM (inactive), the GI50 [12] was > 100 µM (inactive) and the GI50 [20] was > 100 µM (inactive). The GI50 [13] was > 100 µM (inactive), the GI50 [14] was > 100 µM (inactive) and the GI50 [15] was > 100 µM (inactive). The GI50 [16] was > 100 µM (inactive).

For `CC(=O)NC1=C(NCCO)C(=O)c2ccccc2C1=O`, the GI50 [17] was > 50 µM (inactive), the GI50 [1] was > 50 µM (inactive) and the GI50 [2] was > 50 µM (inactive). For the same compound, the GI50 [18] was > 50 µM, the GI50 [3] was 12.8 µM (inactive) and the GI50 [4] was 20.8 µM (inactive). The GI50 [5] was > 50 µM (inactive), the GI50 [6] was > 50 µM (inactive) and the GI50 [8] was > 50 µM (inactive). For the same compound, the GI50 [9] was > 50 µM (inactive), the GI50 [10] was > 50 µM (inactive) and the GI50 [11] was > 50 µM (inactive). For the same compound, the GI50 [12] was 42.6 µM (inactive), the GI50 [20] was > 50 µM (inactive) and the GI50 [14] was > 50 µM (inactive). The GI50 [16] was > 50 µM (inactive).

`CC1SC2=NC3=C(c4ccccc4C3=O)C(c3ccc(Cl)cc3)N2C1=O` (configuration not stated) was tested, and the GI50 [17] was > 100 µM (inactive), the GI50 [1] was > 100 µM (inactive) and the GI50 [2] was > 100 µM (inactive). The GI50 [18] was > 100 µM, the GI50 [3] was > 100 µM (inactive) and the GI50 [4] was > 100 µM (inactive). The GI50 [5] was > 100 µM (inactive), the GI50 [7] was 22.3 µM (inactive) and the GI50 [19] was > 100 µM (inactive). For the same compound, the GI50 [8] was > 100 µM (inactive), the GI50 [9] was > 100 µM (inactive) and the GI50 [10] was > 100 µM (inactive). For the same compound, the GI50 [11] was 32.8 µM (inactive), the GI50 [12] was > 100 µM (inactive) and the GI50 [20] was > 100 µM (inactive). The GI50 [13] was 64 µM (inactive), the GI50 [14] was > 100 µM (inactive) and the GI50 [15] was > 100 µM (inactive). For the same compound, the GI50 [16] was > 100 µM (inactive).

In the case of `COc1ccc(/C=C/C(=O)c2sc(NC(=S)NC(=O)c3ccccc3F)nc2C)cc1OC`, the GI50 [17] is reported as > 100 µM (inactive), the GI50 [1] is reported as > 100 µM (inactive) and the GI50 [2] is reported as > 100 µM (inactive). For the same compound, the GI50 [18] was > 100 µM, the GI50 [3] was > 100 µM (inactive) and the GI50 [4] was 46.2 µM (inactive). The GI50 [5] was > 100 µM (inactive), the GI50 [7] was 98.9 µM (inactive) and the GI50 [19] was > 100 µM (inactive). For the same compound, the GI50 [8] was > 100 µM (inactive), the GI50 [9] was 66.7 µM (inactive) and the GI50 [10] was > 100 µM (inactive). The GI50 [11] was 37.3 µM (inactive), the GI50 [12] was 35.6 µM (inactive) and the GI50 [20] was > 100 µM (inactive). The GI50 [13] was 36.2 µM (inactive), the GI50 [14] was > 100 µM (inactive) and the GI50 [15] was > 100 µM (inactive). The GI50 [16] was 51.5 µM (inactive).

With `COC(=O)[C@@]12C3=NO[C@]1(C(=O)OC)C(O[Si](C)(C)C(C)(C)C)[C@@H](OC(C)=O)[C@@H](OC(C)=O)[C@@H]2[C@@H](OCc1ccccc1)CC3` (some centres not stated) the GI50 [17] was 5.68 µM (inactive), the GI50 [1] was 5.26 µM (inactive) and the GI50 [2] was > 100 µM (inactive). The GI50 [18] was > 30.9 µM, the GI50 [3] was 7.28 µM (inactive) and the GI50 [4] was 3.86 µM (inactive). For the same compound, the GI50 [5] was > 61.1 µM (inactive), the GI50 [7] was 2.22 µM (inactive) and the GI50 [19] was 3.8 µM (inactive). The GI50 [8] was 28.3 µM (inactive), the GI50 [9] was > 23.8 µM (inactive) and the GI50 [10] was > 100 µM (inactive). For the same compound, the GI50 [11] was > 19.9 µM (inactive), the GI50 [12] was 5.45 µM (inactive) and the GI50 [20] was 8.99 µM (inactive). For the same compound, the GI50 [13] was 4.42 µM (inactive), the GI50 [14] was 5.79 µM (inactive) and the GI50 [15] was 8.79 µM (inactive). The GI50 [16] was > 100 µM (inactive).
